IC50 data for 22 compounds are collected here from patent US11787762B2, “Tetralin and tetrahydroquinoline compounds as inhibitors of HIF-2alpha” (ARCUS BIOSCIENCES, INC., priority 2020, dated 2023).

Molecules are shown by their SMILES.

This experiment deals with T1, HIF-2α (Homo sapiens, UniProt Q99814).
T1 construct: host or cells: 786-O cells stably transduced with Cignal Lenti HIF Luc Reporter (only the reporter was introduced, not HIF-2α)
Briefly: HIF-2α luciferase reporter assay in HIF-Luc-786-O cells. The experiment is classed as cell-based. Conditions: Table 3, 20 hours incubation. As to the method:
Generation of HIF-2α Luciferase 786-O Cell Line:
Stable cell lines were generated by transducing 786-O cells (ATCC, CRL-1932) with Cignal Lenti HIF Luc Reporter lentivirus (CLS-007 L, Qiagen) according to the manufacturer's guidelines. In brief, 0.3×10^6 786-0 cells were transduced with lentivirus at a Multiplicity of Infection (MOI) of 25 for 24 hours. After transduction, cells were replenished with fresh RPMI 1640 Medium (Cat. No. 11875085, Thermo Fisher,) supplemented with 10% FBS (Cat. No. A3160502, Gibco), 2 mM GlutaMax (Cat. No. 35050-061, Invitrogen) and 100 units of penicillin and 100 μg of streptomycin/mL (Cat. No 15070063, Thermo Fisher) for another 24 hours. Antibiotic selection was performed in cell media containing 4 μg/mL of Puromycin. After 7 days of antibiotic selection, stable pools of surviving cells were expanded and used in a luciferase reporter assay.
HIF-2α Luciferase Reporter Assay:
On day one, 20 uL of HIF-Luc-786-0 cells in OptiMem (Cat. No. 31985088, Thermo Fisher) were seeded into each well of a 384 well white opaque plate (Corning 3570) and incubated at 37° C. and 5% CO2. Twenty microliters of 2× test compounds in OptiMem were added to cells after 4 hours of incubation. Final assay conditions comprised 20,000 cells per well in 1% DMSO with test compound concentrations ranging from 50 uM to 0 uM. After 20 hours incubation at 37° C. and 5% CO2, luciferase activity was determined using ONE-Glo Luciferase Assay Reagent (E6110, Promega) following the manufacture's recommended procedure. Briefly, 40 uL of ONE-Glo luciferase reagents were added to each well and luciferase signals were measured using an Envision 2102 Multilabel Reader. Percentage maximum activity in each test well was calculated based on DMSO (maximum activity) and no cell control wells (baseline activity). The IC50 values of the test compounds were determined from compound dose response curves fitted using a standard four parameter fit equation.

T1 sequence (Q99814 whole entry): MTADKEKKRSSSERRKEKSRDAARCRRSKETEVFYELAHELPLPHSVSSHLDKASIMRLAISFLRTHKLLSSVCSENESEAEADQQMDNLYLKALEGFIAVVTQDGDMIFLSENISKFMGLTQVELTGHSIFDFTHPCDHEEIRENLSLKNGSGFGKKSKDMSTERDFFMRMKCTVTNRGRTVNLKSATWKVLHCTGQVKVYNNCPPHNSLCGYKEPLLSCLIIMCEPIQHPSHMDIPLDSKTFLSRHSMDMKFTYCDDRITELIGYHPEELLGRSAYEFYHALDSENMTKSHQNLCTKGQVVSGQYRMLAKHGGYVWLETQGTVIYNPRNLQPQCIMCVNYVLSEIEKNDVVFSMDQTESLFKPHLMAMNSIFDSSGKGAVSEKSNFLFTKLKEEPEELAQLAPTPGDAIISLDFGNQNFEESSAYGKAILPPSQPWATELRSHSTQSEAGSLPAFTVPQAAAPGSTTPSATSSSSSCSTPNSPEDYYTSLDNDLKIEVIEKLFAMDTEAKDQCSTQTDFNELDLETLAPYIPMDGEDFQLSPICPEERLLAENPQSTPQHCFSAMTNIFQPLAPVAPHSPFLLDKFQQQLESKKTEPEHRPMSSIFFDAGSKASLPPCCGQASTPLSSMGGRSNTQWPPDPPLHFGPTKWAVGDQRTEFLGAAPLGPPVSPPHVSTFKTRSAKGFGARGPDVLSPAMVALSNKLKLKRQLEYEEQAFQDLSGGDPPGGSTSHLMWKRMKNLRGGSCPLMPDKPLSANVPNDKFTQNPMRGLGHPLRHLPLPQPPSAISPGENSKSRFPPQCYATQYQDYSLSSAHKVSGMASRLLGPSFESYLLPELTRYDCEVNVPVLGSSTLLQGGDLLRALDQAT

A word on the IC50: it is the concentration that inhibits the measured activity by half. The low end stands for inhibition by little substance, the high end for a need for much substance. In turn, `Cc1nc(N)cnc1-c1ccc([C@H]2CC[C@H](F)c3cc(F)cc(C#N)c32)c2c1[C@H](O)C(F)(F)C2` [Example 179, (5S,8R)-8-[(1S)-7-(5-amino-3-methylpyrazin-2-yl)-2,2-difluoro-1-hydroxy-1,3-dihydroinden-4-yl]-3,5-difluoro-5,6,7,8-tetrahydronaphthalene-1-carbonitrile] displayed an IC50 of less than 0.1 µM.

`N#Cc1cc(F)cc2c1[C@@H](c1ccc(-c3cnc(C(N)=O)s3)c3c1CC(F)(F)[C@H]3O)CC[C@@H]2F` [Example 180, 5-[(3S)-7-[(1R,4S)-8-cyano-4,6-difluoro-1,2,3,4-tetrahydronaphthalen-1-yl]-2,2-difluoro-3-hydroxy-1,3-dihydroinden-4-yl]-1,3-thiazole-2-carboxamide] had an IC50 of less than 0.1 µM.

In turn, `N#Cc1cc(F)cc2c1[C@@H](c1ccc(-c3ncncc3N)c3c1CC(F)(F)[C@H]3O)CC[C@@H]2F` [Example 181, (5S,8R)-8-[(1S)-7-(5-aminopyrimidin-4-yl)-2,2-difluoro-1-hydroxy-1,3-dihydroinden-4-yl]-3,5-difluoro-5,6,7,8-tetrahydronaphthalene-1-carbonitrile] showed a concentration for half-maximal inhibition (IC50) of 0.1 to 1 µM.

The compound `Cn1cnc(-c2ccc([C@H]3CC[C@H](F)c4cc(F)cc(C#N)c43)c3c2[C@H](O)C(F)(F)C3)n1` [Example 182, (5S,8R)-8-[(1S)-2,2-difluoro-1-hydroxy-7-(1-methyl-1,2,4-triazol-3-yl)-1,3-dihydroinden-4-yl]-3,5-difluoro-5,6,7,8-tetrahydronaphthalene-1-carbonitrile] registered an IC50 of 0.1 to 1 µM.

Take `Cc1c(-c2ccc([C@H]3CC[C@H](F)c4cc(F)cc(C#N)c43)c3c2[C@H](O)C(F)(F)C3)nnn1C` [Example 183, (5S,8R)-8-[(1S)-7-(1,5-dimethyltriazol-4-yl)-2,2-difluoro-1-hydroxy-1,3-dihydroinden-4-yl]-3,5-difluoro-5,6,7,8-tetrahydronaphthalene-1-carbonitrile]: the IC50 lay in the range of 0.1 to 1 µM.

With `N#Cc1cc(F)cc2c1[C@@H](c1ccc(-c3cccnc3C#N)c3c1CC(F)(F)[C@H]3O)CC[C@@H]2F` [Example 184, 3-[(3S)-7-[(1R,4S)-8-cyano-4,6-difluoro-1,2,3,4-tetrahydronaphthalen-1-yl]-2,2-difluoro-3-hydroxy-1,3-dihydroinden-4-yl]pyridine-2-carbonitrile], the 50% inhibitory concentration (IC50) was less than 0.1 µM.

With `Cc1ccc(-c2ccc([C@H]3CC[C@H](F)c4cc(F)cc(C#N)c43)c3c2[C@H](O)C(F)(F)C3)c(N)n1` [Example 185, (5S,8R)-8-[(1S)-7-(2-amino-6-methylpyridin-3-yl)-2,2-difluoro-1-hydroxy-1,3-dihydroinden-4-yl]-3,5-difluoro-5,6,7,8-tetrahydronaphthalene-1-carbonitrile], the 50% inhibitory concentration (IC50) is less than 0.1 µM.

In turn, `N#Cc1cc(F)cc2c1[C@@H](c1ccc(-c3nccnc3N)c3c1CC(F)(F)[C@H]3O)CC[C@@H]2F` [Example 186, (5S,8R)-8-[(1S)-7-(3-aminopyrazin-2-yl)-2,2-difluoro-1-hydroxy-1,3-dihydroinden-4-yl]-3,5-difluoro-5,6,7,8-tetrahydronaphthalene-1-carbonitrile] returned an IC50 of less than 0.1 µM.

The compound `N#Cc1cc(F)cc2c1[C@@H](c1ccc(-c3cccc4cn[nH]c34)c3c1CC(F)(F)[C@H]3O)CC[C@@H]2F` [Example 187, (5S,8R)-8-[(1S)-2,2-difluoro-1-hydroxy-7-(1H-indazol-7-yl)-1,3-dihydroinden-4-yl]-3,5-difluoro-5,6,7,8-tetrahydronaphthalene-1-carbonitrile] came in with an IC50 of less than 0.1 µM.

With `Cc1nc(N)sc1-c1ccc([C@H]2CC[C@H](F)c3cc(F)cc(C#N)c32)c2c1[C@H](O)C(F)(F)C2` [Example 188, (5S,8R)-8-[(1S)-7-(2-amino-4-methyl-1,3-thiazol-5-yl)-2,2-difluoro-1-hydroxy-1,3-dihydroinden-4-yl]-3,5-difluoro-5,6,7,8-tetrahydronaphthalene-1-carbonitrile], the half-inhibitory concentration (IC50) fell in the range of 0.1 to 1 µM.

Turning to `N#Cc1cc(F)cc2c1[C@@H](c1ccc(-c3cccc4ncsc34)c3c1CC(F)(F)[C@H]3O)CC[C@@H]2F` [Example 189, (5S,8R)-8-[(1S)-7-(1,3-benzothiazol-7-yl)-2,2-difluoro-1-hydroxy-1,3-dihydroinden-4-yl]-3,5-difluoro-5,6,7,8-tetrahydronaphthalene-1-carbonitrile], the half-maximal inhibitory concentration (IC50) was less than 0.1 µM.

The compound `N#Cc1cc(F)cc2c1[C@@H](c1ccc(-c3cccc4scnc34)c3c1CC(F)(F)[C@H]3O)CC[C@@H]2F` [Example 190, (5S,8R)-8-[(1S)-7-(1,3-benzothiazol-4-yl)-2,2-difluoro-1-hydroxy-1,3-dihydroinden-4-yl]-3,5-difluoro-5,6,7,8-tetrahydronaphthalene-1-carbonitrile] had an IC50 of 0.1 to 1 µM.

In turn, `N#Cc1cc(F)cc2c1[C@@H](c1ccc(-c3scnc3CO)c3c1CC(F)(F)[C@H]3O)CC[C@@H]2F` [Example 191, (5S,8R)-8-[(1S)-2,2-difluoro-1-hydroxy-7-[4-(hydroxymethyl)-1,3-thiazol-5-yl]-1,3-dihydroinden-4-yl]-3,5-difluoro-5,6,7,8-tetrahydronaphthalene-1-carbonitrile] yielded an IC50 of less than 0.1 µM.

In the case of `Cc1scnc1-c1ccc([C@H]2CC[C@H](F)c3cc(F)cc(C#N)c32)c2c1[C@H](O)C(F)(F)C2` [Example 192, (5S,8R)-8-[(1S)-2,2-difluoro-1-hydroxy-7-(5-methyl-1,3-thiazol-4-yl)-1,3-dihydroinden-4-yl]-3,5-difluoro-5,6,7,8-tetrahydronaphthalene-1-carbonitrile], the IC50 is less than 0.1 µM.

In turn, `Cc1nc(C)c(-c2ccc([C@H]3CC[C@H](F)c4cc(F)cc(C#N)c43)c3c2[C@H](O)C(F)(F)C3)s1` [Example 193, (5S,8R)-8-[(1S)-7-(2,4-dimethyl-1,3-thiazol-5-yl)-2,2-difluoro-1-hydroxy-1,3-dihydroinden-4-yl]-3,5-difluoro-5,6,7,8-tetrahydronaphthalene-1-carbonitrile] came in with an IC50 of less than 0.1 µM.

The compound `N#Cc1cc(F)cc2c1[C@@H](c1ccc(-c3ccc(F)cc3N)c3c1CC(F)(F)[C@H]3O)CC[C@@H]2F` [Example 194, (5S,8R)-8-[(1S)-7-(2-amino-4-fluorophenyl)-2,2-difluoro-1-hydroxy-1,3-dihydroinden-4-yl]-3,5-difluoro-5,6,7,8-tetrahydronaphthalene-1-carbonitrile] returned an IC50 of less than 0.1 µM.

On to `Cc1ccc(-c2ccc([C@H]3CC[C@H](F)c4cc(F)cc(C#N)c43)c3c2[C@H](O)C(F)(F)C3)c(N)c1` [Example 195, (5S,8R)-8-[(1S)-7-(2-amino-4-methylphenyl)-2,2-difluoro-1-hydroxy-1,3-dihydroinden-4-yl]-3,5-difluoro-5,6,7,8-tetrahydronaphthalene-1-carbonitrile], for which the IC50 was less than 0.1 µM.

In turn, `N#Cc1cc(F)cc2c1[C@@H](c1ccc(-c3c(N)cccc3F)c3c1CC(F)(F)[C@H]3O)CC[C@@H]2F` [Example 196, (5S,8R)-8-[(1S)-7-(2-amino-6-fluorophenyl)-2,2-difluoro-1-hydroxy-1,3-dihydroinden-4-yl]-3,5-difluoro-5,6,7,8-tetrahydronaphthalene-1-carbonitrile] gave a 50% inhibitory concentration (IC50) of less than 0.1 µM.

As to `N#Cc1ccc(-c2ccc([C@H]3CC[C@H](F)c4cc(F)cc(C#N)c43)c3c2[C@H](O)C(F)(F)C3)c(N)c1` [Example 197, (5S,8R)-8-[(1S)-7-(2-amino-4-cyanophenyl)-2,2-difluoro-1-hydroxy-1,3-dihydroinden-4-yl]-3,5-difluoro-5,6,7,8-tetrahydronaphthalene-1-carbonitrile], the IC50 is less than 0.1 µM.

Compound `Cc1nc(S(C)(=O)=O)ccc1-c1ccc([C@H]2CC[C@H](F)c3cc(F)cc(C#N)c32)c2c1[C@H](O)C(F)(F)C2` [Example 198, (5S,8R)-8-[(1S)-2,2-difluoro-1-hydroxy-7-(2-methyl-6-methylsulfonylpyridin-3-yl)-1,3-dihydroinden-4-yl]-3,5-difluoro-5,6,7,8-tetrahydronaphthalene-1-carbonitrile] gave an IC50 of 0.1 to 1 µM.

For `N#Cc1cc(F)cc2c1[C@@H](c1ccc(-n3ccnc3)c3c1CC(F)(F)[C@H]3O)CC[C@@H]2F` [Example 199, (5S,8R)-8-[(1S)-2,2-difluoro-1-hydroxy-7-imidazol-1-yl-1,3-dihydroinden-4-yl]-3,5-difluoro-5,6,7,8-tetrahydronaphthalene-1-carbonitrile], the IC50 is less than 0.1 µM.

In turn, `N#Cc1cc(F)cc2c1[C@@H](c1ccc(Nc3ccccn3)c3c1CC(F)(F)[C@H]3O)CC[C@@H]2F` [Example 200, (5S,8R)-8-[(1S)-2,2-difluoro-1-hydroxy-7-(pyridin-2-ylamino)-1,3-dihydroinden-4-yl]-3,5-difluoro-5,6,7,8-tetrahydronaphthalene-1-carbonitrile] returned a 50% inhibitory concentration (IC50) of 0.1 to 1 µM.
